Results from ChEMBL document CHEMBL1773004, “1-[(1-methyl-1H-imidazol-2-yl)methyl]-4-phenylpiperidines as mGluR2 positive allosteric modulators for the treatment of psychosis” (J Med Chem, 2011).
Activity calls are given as the source filed them. The calls are words filed in the database; no cut-off is given here.

Columns and labels:
[1] = target: Metabotropic glutamate receptor 1 (Homo sapiens) (UniProt Q13255); experiment: Agonist activity at mGlu1 receptor at up to 10 uM; type: functional
[2] = Plasma clearance in rat at 0.5 mg/kg, iv; type: ADME, organism-based; parameters: dose 0.5 mg/kg, route intravenous
[3] = target: Metabotropic glutamate receptor 5 (Homo sapiens) (UniProt P41594); experiment: Antagonist activity at mGlu5 receptor at up to 10 uM; type: functional
Sequence of Metabotropic glutamate receptor 5 (Homo sapiens) (P41594 21-1212 limits assumed): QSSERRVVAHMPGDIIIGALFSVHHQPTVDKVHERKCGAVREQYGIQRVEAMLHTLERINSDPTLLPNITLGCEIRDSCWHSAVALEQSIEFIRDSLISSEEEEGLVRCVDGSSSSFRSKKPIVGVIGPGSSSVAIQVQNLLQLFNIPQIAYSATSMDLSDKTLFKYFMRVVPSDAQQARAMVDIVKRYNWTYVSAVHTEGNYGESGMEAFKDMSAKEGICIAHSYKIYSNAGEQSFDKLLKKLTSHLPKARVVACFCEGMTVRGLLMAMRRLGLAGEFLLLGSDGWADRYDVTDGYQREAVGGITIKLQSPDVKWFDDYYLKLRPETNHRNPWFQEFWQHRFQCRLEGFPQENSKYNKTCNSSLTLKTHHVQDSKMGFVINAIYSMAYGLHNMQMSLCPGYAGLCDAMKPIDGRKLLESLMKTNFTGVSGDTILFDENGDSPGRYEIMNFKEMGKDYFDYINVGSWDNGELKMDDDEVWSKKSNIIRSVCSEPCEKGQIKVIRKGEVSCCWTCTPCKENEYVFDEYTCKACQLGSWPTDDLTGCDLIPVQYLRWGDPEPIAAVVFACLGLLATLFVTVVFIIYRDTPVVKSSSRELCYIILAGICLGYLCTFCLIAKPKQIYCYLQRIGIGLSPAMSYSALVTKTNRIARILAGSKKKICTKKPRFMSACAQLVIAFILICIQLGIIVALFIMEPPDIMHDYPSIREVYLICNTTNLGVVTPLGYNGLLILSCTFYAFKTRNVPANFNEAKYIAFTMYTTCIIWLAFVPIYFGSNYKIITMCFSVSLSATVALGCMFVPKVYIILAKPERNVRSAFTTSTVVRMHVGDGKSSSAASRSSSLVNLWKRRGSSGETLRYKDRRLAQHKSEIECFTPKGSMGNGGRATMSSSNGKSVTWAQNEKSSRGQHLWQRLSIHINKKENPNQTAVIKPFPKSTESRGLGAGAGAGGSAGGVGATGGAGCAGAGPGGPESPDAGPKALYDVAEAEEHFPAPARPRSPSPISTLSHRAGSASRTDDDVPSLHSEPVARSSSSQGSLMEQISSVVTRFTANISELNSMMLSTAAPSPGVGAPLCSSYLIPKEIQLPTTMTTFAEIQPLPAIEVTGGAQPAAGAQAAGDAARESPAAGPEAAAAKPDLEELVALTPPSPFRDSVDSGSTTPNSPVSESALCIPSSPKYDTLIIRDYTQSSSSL

[4] = Permeability from apical to basolateral side of MDR1 transfected MDCK cells at 1 uM; type: ADME, cell-based, Canis lupus familiaris; conditions: dog, read-out: permeability
[5] = target: Metabotropic glutamate receptor 5 (Homo sapiens) (UniProt P41594); experiment: Agonist activity at mGlu5 receptor at up to 10 uM; type: functional
[6] = target: Metabotropic glutamate receptor 5 (Homo sapiens) (UniProt P41594); experiment: Positive allosteric modulation of mGlu5 receptor at up to 10 uM
Mus musculus [7] = experiment: Antipsychotic activity in sc dosed CD1 mouse assessed as inhibition of mescaline-induced scratching behavioral response administered 20 mins before mescalin challenge measured for 12 mins; type: functional
[8] = Ratio of drug level in brain to plasma in mouse at 10 mg/kg, sc after 60 mins; type: ADME, organism-based; parameters: dose 10 mg/kg, route subcutaneous
[9] = Ratio of drug level in brain to plasma in rat at 3.2 mg/kg, sc after 60 mins; type: ADME, organism-based; parameters: dose 3.2 mg/kg, route subcutaneous
[10] = Oral bioavailability in rat at 3 mg/kg; type: ADME, organism-based; conditions: in vivo
Mus musculus [11] = experiment: Antipsychotic activity in sc dosed mouse assessed as inhibition of methamphetamine-induced hyperlocomotion measured for 60 mins; type: functional
[12] = target: Metabotropic glutamate receptor 1 (Homo sapiens) (UniProt Q13255); experiment: Antagonist activity at mGlu1 receptor at up to 10 uM; type: functional
D(2) dopamine receptor [13] = target: D(2) dopamine receptor (Rattus norvegicus, UniProt P61169); experiment: Displacement of [3H]spiperone from dopamine D2 receptor in rat corpus striatum by beta plate scintillation counting; type: tissue-based
Sequence of D(2) dopamine receptor (Rattus norvegicus, UniProt P61169) (P61169 whole entry): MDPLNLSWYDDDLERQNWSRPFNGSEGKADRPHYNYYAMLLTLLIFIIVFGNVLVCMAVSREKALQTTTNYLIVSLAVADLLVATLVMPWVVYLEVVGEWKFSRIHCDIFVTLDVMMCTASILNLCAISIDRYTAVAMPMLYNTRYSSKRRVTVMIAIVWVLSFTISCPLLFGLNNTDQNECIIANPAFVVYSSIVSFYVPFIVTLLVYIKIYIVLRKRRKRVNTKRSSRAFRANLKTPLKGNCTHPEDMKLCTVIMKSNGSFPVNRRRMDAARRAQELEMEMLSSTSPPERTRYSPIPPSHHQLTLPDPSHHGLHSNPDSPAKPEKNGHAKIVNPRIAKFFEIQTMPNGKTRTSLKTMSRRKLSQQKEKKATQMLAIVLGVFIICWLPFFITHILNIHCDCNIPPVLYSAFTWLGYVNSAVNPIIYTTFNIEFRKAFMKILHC

[14] = Cmax in rat brain at 3 mg/kg, po; type: ADME, organism-based; parameters: dose 3 mg/kg, route oral
Brain = experiment: Fraction unbound in rat brain by LC-MS/MS assay; type: ADME, tissue-based
[15] = target: Metabotropic glutamate receptor 2 (Rattus norvegicus, UniProt P31421); experiment: Positive allosteric modulation of rat mGluR2 expressed in HEK293 cells co-expressing Galpha15 G protein assessed as increase in glutamate-induced intracellular calcium release by FLIPR assay; type: functional, cell-based
Sequence of Metabotropic glutamate receptor 2 (Rattus norvegicus, UniProt P31421) (P31421 whole entry): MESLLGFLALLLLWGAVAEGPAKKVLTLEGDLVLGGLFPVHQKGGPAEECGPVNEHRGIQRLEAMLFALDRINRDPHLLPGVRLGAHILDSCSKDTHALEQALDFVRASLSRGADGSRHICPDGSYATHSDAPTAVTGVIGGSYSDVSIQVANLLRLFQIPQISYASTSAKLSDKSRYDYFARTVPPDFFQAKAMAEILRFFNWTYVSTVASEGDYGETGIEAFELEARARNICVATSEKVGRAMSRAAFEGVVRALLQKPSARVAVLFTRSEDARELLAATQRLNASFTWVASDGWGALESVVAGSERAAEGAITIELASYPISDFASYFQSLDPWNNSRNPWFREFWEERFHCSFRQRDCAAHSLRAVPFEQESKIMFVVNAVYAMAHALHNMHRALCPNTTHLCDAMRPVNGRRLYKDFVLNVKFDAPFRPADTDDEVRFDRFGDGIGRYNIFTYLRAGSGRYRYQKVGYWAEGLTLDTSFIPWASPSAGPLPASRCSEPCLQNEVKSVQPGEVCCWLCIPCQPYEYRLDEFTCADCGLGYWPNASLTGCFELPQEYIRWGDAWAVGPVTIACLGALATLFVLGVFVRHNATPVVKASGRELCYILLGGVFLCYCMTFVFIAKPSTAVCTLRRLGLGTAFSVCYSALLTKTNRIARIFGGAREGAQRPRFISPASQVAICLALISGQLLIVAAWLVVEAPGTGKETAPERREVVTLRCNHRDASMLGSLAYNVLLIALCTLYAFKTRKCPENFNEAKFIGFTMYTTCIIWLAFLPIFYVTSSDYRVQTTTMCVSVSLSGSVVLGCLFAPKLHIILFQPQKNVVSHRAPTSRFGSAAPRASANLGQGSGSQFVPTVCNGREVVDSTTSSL

HEK293 = experiment: Selectivity ratio of Ki for dopamine D2 receptor in rat corpus striatum to EC50 for rat mGluR2 expressed in HEK293 cells; type: cell-based
[16] = target: Metabotropic glutamate receptor 2 (Homo sapiens, UniProt Q14416); experiment: Positive allosteric modulation of human mGluR2 expressed in HEK293 cells co-expressing Galpha15 G protein assessed as increase in glutamate-induced intracellular calcium release by FLIPR assay; type: functional, cell-based
[17] = Cmax in rat brain at 5 mg/kg, po; type: ADME, organism-based; parameters: dose 5 mg/kg, route oral
MDCK = experiment: Efflux ratio of permeability from […] of MDR1 transfected MDCK cells at 1 uM; type: ADME, cell-based, Canis lupus familiaris; conditions: dog
[18] = target: T1, Alpha-2A adrenergic receptor (Homo sapiens) (UniProt P08913); experiment: Binding affinity to adrenergic alpha2A receptor at 3.16 uM
T1 sequence (whole entry): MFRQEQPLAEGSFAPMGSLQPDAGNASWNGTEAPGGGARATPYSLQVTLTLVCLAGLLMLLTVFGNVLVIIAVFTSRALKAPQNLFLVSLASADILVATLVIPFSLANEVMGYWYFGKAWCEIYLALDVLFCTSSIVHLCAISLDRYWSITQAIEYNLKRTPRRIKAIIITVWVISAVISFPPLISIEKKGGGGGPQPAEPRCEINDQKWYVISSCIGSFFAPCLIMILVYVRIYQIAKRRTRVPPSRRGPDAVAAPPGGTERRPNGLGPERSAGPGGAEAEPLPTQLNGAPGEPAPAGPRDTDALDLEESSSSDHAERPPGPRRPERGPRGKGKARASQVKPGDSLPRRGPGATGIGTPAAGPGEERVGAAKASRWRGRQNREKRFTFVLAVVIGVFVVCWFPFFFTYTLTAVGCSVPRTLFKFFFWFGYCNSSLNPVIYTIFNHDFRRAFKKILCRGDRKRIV

hERG (KCNH2) = hERG (KCNH2) (Homo sapiens, UniProt Q12809); experiment: Binding affinity to human ERG at 3.16 uM
D(2) dopamine receptor [19] = target: D(2) dopamine receptor (Homo sapiens, UniProt P14416); experiment: Antagonist activity at human dopamine D2 receptor expressed in CHO cells assessed as inhibition of quinpirole-induced effect; type: functional, cell-based
[20] = target: 5-hydroxytryptamine receptor 2B (Homo sapiens) (UniProt P41595); experiment: Binding affinity to 5HT2B receptor at 3.16 uM
Sequence of 5-hydroxytryptamine receptor 2B (Homo sapiens) (P41595 whole entry): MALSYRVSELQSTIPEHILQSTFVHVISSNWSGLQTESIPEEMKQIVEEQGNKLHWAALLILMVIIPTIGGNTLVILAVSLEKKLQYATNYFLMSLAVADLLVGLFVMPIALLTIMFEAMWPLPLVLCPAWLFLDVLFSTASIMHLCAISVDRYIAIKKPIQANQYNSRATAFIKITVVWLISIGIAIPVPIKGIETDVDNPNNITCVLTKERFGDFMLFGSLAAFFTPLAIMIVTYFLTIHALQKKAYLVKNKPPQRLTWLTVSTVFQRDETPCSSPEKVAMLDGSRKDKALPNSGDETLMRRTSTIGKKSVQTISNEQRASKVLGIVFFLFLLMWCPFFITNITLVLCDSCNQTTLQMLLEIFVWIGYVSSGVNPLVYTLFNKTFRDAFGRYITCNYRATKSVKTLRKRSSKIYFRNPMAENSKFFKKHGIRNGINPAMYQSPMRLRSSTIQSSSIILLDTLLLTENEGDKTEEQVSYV

[21] = target: 5-hydroxytryptamine receptor 2A (Homo sapiens) (UniProt P28223); experiment: Binding affinity to 5HT2A receptor at 3.16 uM
[22] = target: T2, Muscarinic acetylcholine receptor M1 (Homo sapiens) (UniProt P11229); experiment: Binding affinity to muscarinic M1 receptor at 3.16 uM
T2 sequence (whole entry): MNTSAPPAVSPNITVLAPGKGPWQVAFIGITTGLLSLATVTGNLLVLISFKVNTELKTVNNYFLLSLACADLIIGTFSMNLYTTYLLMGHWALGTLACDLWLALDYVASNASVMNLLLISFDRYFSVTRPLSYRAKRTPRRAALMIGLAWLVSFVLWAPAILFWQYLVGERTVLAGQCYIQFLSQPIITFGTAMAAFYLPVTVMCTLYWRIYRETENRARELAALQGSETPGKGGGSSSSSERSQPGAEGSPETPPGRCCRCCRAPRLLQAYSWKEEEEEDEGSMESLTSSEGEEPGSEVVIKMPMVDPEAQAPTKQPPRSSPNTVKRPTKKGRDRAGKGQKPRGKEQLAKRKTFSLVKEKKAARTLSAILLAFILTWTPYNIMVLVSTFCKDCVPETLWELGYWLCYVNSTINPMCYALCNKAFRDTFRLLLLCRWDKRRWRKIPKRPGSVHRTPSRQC

[23] = target: T3, 5-hydroxytryptamine receptor 1A (Homo sapiens) (UniProt P08908); experiment: Binding affinity to 5HT1A receptor at 3.16 uM
T3 sequence (whole entry): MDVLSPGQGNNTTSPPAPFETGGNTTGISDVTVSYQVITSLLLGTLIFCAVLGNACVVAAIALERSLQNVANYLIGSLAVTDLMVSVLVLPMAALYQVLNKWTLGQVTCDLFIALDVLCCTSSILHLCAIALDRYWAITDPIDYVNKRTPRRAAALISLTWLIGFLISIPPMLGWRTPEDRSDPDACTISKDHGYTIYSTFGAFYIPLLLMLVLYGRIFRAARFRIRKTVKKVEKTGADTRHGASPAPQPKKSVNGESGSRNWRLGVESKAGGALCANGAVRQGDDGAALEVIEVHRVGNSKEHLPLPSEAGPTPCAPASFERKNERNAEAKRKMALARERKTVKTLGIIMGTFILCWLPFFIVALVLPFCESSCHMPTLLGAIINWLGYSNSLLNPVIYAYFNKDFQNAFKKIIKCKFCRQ

[24] = target: Histamine H1 receptor (Homo sapiens) (UniProt P35367); experiment: Binding affinity to histamine H1 receptor at 3.16 uM
Sequence of Histamine H1 receptor (Homo sapiens) (P35367 whole entry): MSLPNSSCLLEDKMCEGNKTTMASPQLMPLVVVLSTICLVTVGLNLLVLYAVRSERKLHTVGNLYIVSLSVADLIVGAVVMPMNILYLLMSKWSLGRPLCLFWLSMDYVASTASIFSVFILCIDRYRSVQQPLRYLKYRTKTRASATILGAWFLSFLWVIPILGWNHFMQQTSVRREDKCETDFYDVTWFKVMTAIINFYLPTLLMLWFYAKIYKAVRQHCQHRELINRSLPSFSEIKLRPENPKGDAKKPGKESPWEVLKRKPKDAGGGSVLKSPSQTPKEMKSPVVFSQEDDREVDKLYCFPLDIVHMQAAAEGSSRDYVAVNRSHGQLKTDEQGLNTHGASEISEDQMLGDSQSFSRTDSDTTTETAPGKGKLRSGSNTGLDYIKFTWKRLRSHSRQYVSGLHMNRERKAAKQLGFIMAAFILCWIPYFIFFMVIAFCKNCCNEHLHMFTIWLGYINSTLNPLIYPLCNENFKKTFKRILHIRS

Sequence of Metabotropic glutamate receptor 1 (Homo sapiens) (Q13255 19-1194 limits assumed): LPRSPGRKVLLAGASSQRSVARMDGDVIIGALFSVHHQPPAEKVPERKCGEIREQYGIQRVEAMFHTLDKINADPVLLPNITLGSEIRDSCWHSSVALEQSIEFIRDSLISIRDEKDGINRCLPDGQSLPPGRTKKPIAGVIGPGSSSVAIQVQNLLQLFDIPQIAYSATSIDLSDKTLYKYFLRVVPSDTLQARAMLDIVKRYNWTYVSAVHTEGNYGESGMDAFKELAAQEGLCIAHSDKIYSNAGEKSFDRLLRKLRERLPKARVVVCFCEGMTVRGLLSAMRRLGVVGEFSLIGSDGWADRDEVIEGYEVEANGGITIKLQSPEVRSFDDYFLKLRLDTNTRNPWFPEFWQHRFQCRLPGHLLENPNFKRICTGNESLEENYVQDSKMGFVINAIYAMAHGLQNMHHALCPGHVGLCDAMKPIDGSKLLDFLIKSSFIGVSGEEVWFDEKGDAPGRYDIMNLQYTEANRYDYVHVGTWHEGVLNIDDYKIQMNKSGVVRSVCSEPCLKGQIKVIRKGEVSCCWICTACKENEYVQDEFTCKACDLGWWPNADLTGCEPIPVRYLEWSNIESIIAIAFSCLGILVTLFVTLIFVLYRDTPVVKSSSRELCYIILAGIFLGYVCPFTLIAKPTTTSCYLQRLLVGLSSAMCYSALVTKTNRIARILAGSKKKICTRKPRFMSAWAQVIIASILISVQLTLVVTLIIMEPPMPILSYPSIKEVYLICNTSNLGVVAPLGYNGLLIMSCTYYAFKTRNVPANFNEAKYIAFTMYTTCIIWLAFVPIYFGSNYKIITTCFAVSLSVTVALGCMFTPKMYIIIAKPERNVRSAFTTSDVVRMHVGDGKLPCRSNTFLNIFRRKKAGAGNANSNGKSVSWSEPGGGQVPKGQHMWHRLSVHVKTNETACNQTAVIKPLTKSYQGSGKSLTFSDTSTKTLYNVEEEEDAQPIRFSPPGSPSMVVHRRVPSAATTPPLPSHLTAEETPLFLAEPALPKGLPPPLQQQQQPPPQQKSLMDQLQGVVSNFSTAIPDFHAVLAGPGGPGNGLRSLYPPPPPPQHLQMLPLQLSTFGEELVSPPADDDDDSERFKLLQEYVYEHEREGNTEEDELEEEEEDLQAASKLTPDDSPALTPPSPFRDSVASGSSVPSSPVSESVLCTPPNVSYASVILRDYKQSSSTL

C[C@H]1CN(Cc2nc3ncccc3n2C)CC[C@H]1c1ccc(OC(F)(F)F)cc1F
Activity [1]: inactive
clearance [2]: 4.5 mL/min/kg
Activity [3]: inactive
Papp A→B at 1 µM [4]: 14 ×10⁻⁶ cm/s
Activity [5]: inactive
Activity [6]: inactive
inhibition (Mus musculus [7]): Dose-dependent effect
minimal effective dose (Mus musculus [7]; read-out: MED): 10 mg/kg
Kp at 1 h [8]: 1.2
Kp at 1 h [9]: 4
bioavailability [10]: 50%
inhibition (Mus musculus [11]): Dose-dependent effect
minimal effective dose (Mus musculus [11]; 1 h, read-out: MED): 17.8 mg/kg
Activity [12]: inactive
Ki (D(2) dopamine receptor [13]): > 4680 nM
Cmax [14]: 1070 nM
Fu (Brain): 0.3%

Cn1c(CN2CCC(c3ccc(C(F)(F)F)cc3)C(O)C2)nc2ncccc21 (trans isomer)
EC50 [15]: > 10000 nM

Cn1c(CN2CC[C@@H](c3ccc(C(F)(F)F)cc3)C(C)(C)C2)nc2ncccc21
EC50 [15]: 745 nM
Ki (D(2) dopamine receptor [13]): > 2800 nM

Cn1c(CN2CCC(c3ccccc3F)CC2)nc2ccccc21
EC50 [15]: 22 nM

Cn1c(CN2CCC(c3cccc(F)c3)CC2)nc2ccccc21
EC50 [15]: 3310 nM

Cc1cc(C2CCN(Cc3nc4ccccc4n3C)CC2)nc(N2CCCC2)n1
EC50 [15]: 4790 nM

CNC(=O)c1cccc(C2CCN(Cc3nc4ccccc4n3C)CC2)c1
EC50 [15]: > 10000 nM

C[C@H]1CN(Cc2nc3ncccc3n2C)CC[C@H]1c1ccc(Cl)cc1F
EC50 [15]: 28 nM
Ki (D(2) dopamine receptor [13]): 1620 nM

Cn1c(CN2CCC(c3ccc(Cl)cc3F)CC2)nc2ccccc21
EC50 [15]: 7.6 nM

Cn1c(CN2CCC(c3ccccc3Cl)CC2)nc2ccccc21
EC50 [15]: 144 nM

Cn1c(CN2CCC(c3ccccc3C(F)(F)F)CC2)nc2ccccc21
EC50 [15]: 109 nM

Cn1c(CN2CCC(c3ccc(C(F)(F)F)cc3)CC2)nc2ccncc21
EC50 [15]: 196 nM

Cn1c(CN2CCC(c3ccc(F)cc3)CC2)nc2ccccc21
EC50 [15]: 159 nM
Ki (D(2) dopamine receptor [13]): 24 nM

Cn1c(CN2CCC(c3ccccc3)CC2)nc2ccccc21
EC50 [15]: 212 nM

COc1cc(C(F)(F)F)ccc1[C@@H]1CCN(Cc2nc3ncccc3n2C)C[C@@H]1C
Activity [1]: inactive
EC50 [15]: 22 nM
Activity [3]: inactive
Papp A→B at 1 µM [4]: 19 ×10⁻⁶ cm/s
Activity [5]: inactive
Activity [6]: inactive
Kp at 1 h [8]: 1.7
Ratio (HEK293): > 239
Kp at 1 h [9]: 8
EC50 [16]: 76 nM
Cmax [17]: 1580 nM
Activity [12]: inactive
Ki (D(2) dopamine receptor [13]): > 5260 nM
Fu (Brain): 0.6%
Ratio (MDCK): 1.5

COc1ccccc1C1CCN(Cc2nc3ccccc3n2C)CC1
inhibition [18]: < 50%
inhibition at 3.16 µM (hERG (KCNH2)): < 50%
EC50 (D(2) dopamine receptor [19]): 951 nM
Activity [1]: inactive
EC50 [15]: 87 nM
inhibition [20]: < 50%
Activity [3]: inactive
Papp A→B at 1 µM [4]: 25.8 ×10⁻⁶ cm/s
Activity [5]: inactive
Activity [6]: inactive
inhibition [21]: < 50%
inhibition [22]: < 50%
Activity [12]: inactive
Ki (D(2) dopamine receptor [13]): 426 nM
inhibition [23]: < 50%
inhibition [24]: < 50%
Ratio (MDCK): 1.28

C[C@@H]1CN(Cc2nc3ncccc3n2C)CC[C@@H]1c1ccc(C(F)(F)F)cc1
EC50 [15]: > 1990 nM
Ki (D(2) dopamine receptor [13]): > 2800 nM
